How the values were obtained:
cerebral MAO-A = experiment: Inhibitory effect against cerebral MAO-A activity in mouse (oral administration); format: in vivo; settings: 30 mg/kg oral, brain excised 45 minutes after administration, serotonin substrate
Protocol: (§1) A suspension (7mg protein/ml) of mitochondorial fraction obtained from cerebral tissue of rats in a conventional manner was used as a sample of enzyme, and serotonin was used as the substrate. of MAO-A. The MAO-A activity was estimated in terms of the amount of ammonia produced from serotonin by the enzymatic reaction.
(§2) Inhibitory effect against cerebral MAO-A and MAO-B activity in mouse.
(§3) A test compound (30 mg/kg) suspended in 0.5% aqueous sodium carboxymethylcellulose (CMC-Na) solution was administered orally to a group of 3 mice. The brain was excised 45 minutes after the administration. A control group was administered with the 0.5% aqueous CMC-Na solution alone.
(§4) The brain tissue was homogenized in 9 volumes of ice-cold distilled water and the homogenate was used as enzyme. MAO-A activity was estimated in the same manner as described in Experiment 1, whereas MAO-B activity was estimated in terms of the amount of benzaldehyde formed from benzylamine according to the method as described in "The Journal of Laboratory and Clinical Medicine, vol.

MAO-A = target: T1, MAO-A (Rattus norvegicus, UniProt P21396); experiment: Inhibitory effect against MAO-A activity of cerebral mitochondrial fraction from rat (in vitro); format: biochemical; settings: 10^-7 M test compound, serotonin substrate, read-out: Inhibitory rate (%) against MAO-A activity
T1 construct: mitochondorial fraction obtained from cerebral tissue of rats; from tissue; host or cells: rat cerebral tissue, mitochondrial fraction
T1 sequence (P21396 1-526): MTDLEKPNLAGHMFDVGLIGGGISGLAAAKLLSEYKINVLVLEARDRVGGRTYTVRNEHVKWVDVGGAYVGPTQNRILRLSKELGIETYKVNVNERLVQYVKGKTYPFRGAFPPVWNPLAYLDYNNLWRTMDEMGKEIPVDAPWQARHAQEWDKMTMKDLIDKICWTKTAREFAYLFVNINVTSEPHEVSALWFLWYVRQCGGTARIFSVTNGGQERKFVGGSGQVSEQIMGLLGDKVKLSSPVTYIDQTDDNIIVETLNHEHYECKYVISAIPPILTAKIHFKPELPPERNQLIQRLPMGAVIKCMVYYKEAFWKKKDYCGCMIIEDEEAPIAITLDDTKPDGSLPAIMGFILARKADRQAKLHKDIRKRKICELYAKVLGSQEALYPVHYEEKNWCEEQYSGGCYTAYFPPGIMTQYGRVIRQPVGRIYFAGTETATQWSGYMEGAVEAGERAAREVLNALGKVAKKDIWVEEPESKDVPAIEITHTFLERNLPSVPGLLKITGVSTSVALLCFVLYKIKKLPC
Protocol: Inhibitory effect against MAO-A activity of cerebral mitochondorian fraction from rat (in vitro)
as §1
Inhibitory rate of the test compounds (10^-7 M) against the MAO-A activity was calculated according to the following equation. [formula] NH3 (T): the amount of NH3 in test tube (addtion of test compound) NH3 (C): the amount of NH3 in control tube (no addition of test compound)

cerebral MAO-B = experiment: Inhibitory effect against cerebral MAO-B activity in mouse (oral administration); format: in vivo; settings: 30 mg/kg oral, brain excised 45 minutes after administration, benzylamine substrate
Protocol: as §2, §3, §4
Inhibitory rate of the test compound against the MAO-B activity are calculated according to the following equation. [formula] BA(T): the amount of benzaldehyde in the medicated group BA(C): the amount of benzaldehyde in the non-medicated control group

mice = experiment: Acute oral toxicity in mice; format: in vivo, mouse; settings: 2g/kg orally, 2 week-observation period
Description: The naphthyloxazolidone derivative (I)or a pharmaceutically acceptable salt thereof has excellent reversible and selective MAO-A inhibitory activity. Accordingly, the compound (I) or a pharmaceutically acceptable salt thereof is useful as a therapeutic or prophylactic agent for depressive conditions such as depression, senile depression, abulia, axiety, insomnia, anorexia and the like in warm-blood animals including human beings. […] Moreover, the compound (I) or a pharmaceutically acceptable salt thereof is low in toxicity and have high safety as a pharmaceuticals. For example, when 3-(6-cyanoethoxy-2-naphthyl)-5-methoxymethyl-2-oxazolidone was administered orally to mice at a dose of 2g/kg, no mice died during 2 week-observation period.

Row | inhibition at 0.1 µM (MAO-A) | SMILES | Inhibitory rate (%) MAO-A (cerebral MAO-A) | Inhibitory rate (%) MAO-B (cerebral MAO-B) | mortality (mice)
1 | 93.5% | COCC1CN(c2ccc3cc(OCC4CC4)ccc3c2)C(=O)O1 (centres unmarked) | 71.4 ± 4.3% | -4.5 ± 5.9% | 
2 | 95.5% | COCC1CN(c2ccc3cc(OCCCC#N)ccc3c2)C(=O)O1 (centres unmarked) [O(CH2)3 CN] | 99.8 ± 16.1% | -1.9 ± 4.8% | 
3 | 91.7% | COCC1CN(c2ccc3cc(OCCCO)ccc3c2)C(=O)O1 (centres unmarked) [O(CH2)3 OH] | 57.1 ± 4.3% | 1.0 ± 0.8% | 
4 | 96.8% | C=CCOc1ccc2cc(N3CC(COC)OC3=O)ccc2c1 (centres unmarked) [OCH2 CHCH2] |  |  | 
5 | 76.6% | COCC1CN(c2ccc3cc(OC(C)=O)ccc3c2)C(=O)O1 (centres unmarked) [OCOCH3, 3-(6-acetyloxy-2-naphthyl)-5-methoxymethyl-2-oxazolidone] | 56.4 ± 7.4% | -3.1 ± 1.8% | 

Continued, compound first:

Row | SMILES | inhibition at 0.1 µM (MAO-A) | Inhibitory rate (%) MAO-A (cerebral MAO-A) | Inhibitory rate (%) MAO-B (cerebral MAO-B) | mortality (mice)
6 | COCC1CN(c2ccc3ccccc3c2)C(=O)O1 (centres unmarked) [H, 5-methoxymethyl-3-(2-naphthyl)-2-oxazolidone] | 78.4% |  |  | 
7 | COCC1CN(c2ccc3cc(OCCC#N)ccc3c2)C(=O)O1 (centres unmarked) [O(CH2)2 CN, 3-(6-cyanoethoxy-2-naphthyl)-5-methoxymethyl-2-oxazolidone] | 98.1% | 109.2 ± 3.5% | -1.0 ± 2.3% | no mice died
8 | COCC1CN(c2ccc3cc(OC(C)C)ccc3c2)C(=O)O1 (centres unmarked) [OCH(CH3)2] | 98.8% | 86.8 ± 5.4% | 3.6 ± 5.3% | 
9 | C#CCN(C)Cc1ccccc1 [pargyline, reference compound] |  | 42.0 ± 2.4% | 98.3 ± 5.9% | 

From US5332754A, “Naphthyloxazolidone derivatives” (Tanabe Seiyaku Co., Ltd., priority 1989, dated 1994)
